In patent US20040076968A1, “Method for detecting pre-disposition to hepatotoxicity” (priority 2000, published 2004):

Assays:
UGT1A6 gene = assay: Association of UGT1A6 polymorphisms with liver function abnormality in tolcapone-treated patients (case-control genotyping); format: in vivo, human
Method: Disease severity had already been controlled for by the original study inclusion criteria.
In the KTC format, the generation of double-stranded amplification product is monitored using a DNA intercalating dye and a thermal cycler which has a fluorescence-detecting CCD camera attached (PE-Bipsystems GeneAmp 5700 Sequence Detection System). Fluorescence in each well of the PCR amplification plate is measured at each cycle of annealing and denaturation. The cycle at which the relative fluorescence reached a threshold of 0.5 using the SDS sofiware from PE-Biosystems was defined as the Ct.
The amplification reactions were designed to be allele-specific, so that the amplification reaction was positive if the polymorphism was present and the amplification reaction was negative if the polymorphism was absent. For each bi-allelic polymorphism, one well of the amplification plate was set up to be specific for allele 1 and a second well was set up to be specific for allele 2. For each polymorphism to be detected, three primers were designed—two allele-specific primers and one common primer (Table 3). Reactions for allele 1 contained allele 1-specific primer and the common primer and reactions for allele 2 contained allele 2-specific primer and the common primer.
The Ct of each amplification reaction was determined and the difference between the Ct for allele 1 and allele 2 (delta Ct) was, used as the assay result. Samples with delta Cts between −3.0 and 3.0 were considered heterozygous (A1/A2). Samples with delta Cts below −3.0 were considered homozygous for A1 (A1/A1); samples with delta Cts above 3.0 were considered homozygous for A2 (A2/A2).
For all other single nucleotide polymorphisms (SNPs) discovery and genotyping was done by double-stranded DNA sequencing using an ABI capillary sequencer and Big Dye chemistry (ABI). The primers used to amplify all exons are shown below and were also used as sequencing primers. Publicly available genomic sequences were used as references for primer design. All polymorphisms were targeted with these pairs-of-primer sets:
The patient samples were divided into two groups.
For each genotype, the following analyses were performed:
a) Analysis of the entire genotype: patients were classified according to the following three categories: homozygous 1/1 (two copies of allele 1 and no copies of allele 2), heterozygous 1/2 (one copy of allele 1 and one copy of allele 2) or homozygous 2/2 (no copies of allele 1 and two copies of allele 2). Analysis was conducted to assess whether there were differences in the proportion of case patients in each of these groups, compared with the proportion of control patients. The Cochran-Maentel-Hanszel (CMH) test was applied to the data presented in a 2-by-3 table (the two columns indicating presence or absence of liver function abnormality and the three rows indicating the three categories of the genotype).
b) Analysis of alleles: the presence of allele 1 or 2 in case patients was compared to the presence of the respective allele in the control patients.
c) Analysis of allele counts: this analysis was conducted to compare the distribution of the alleles in patients with liver function abnormality to that of patients without abnormality. The total number of copies of allele 1 among patients with liver function abnormality was compared with the total number of copies of allele 2 among these case patients.

[1] = Clinical trials for tolcapone in patients with Parkinson's disease: liver transaminases; format: in vivo, human; settings: rare circumstances
From the text: There was therefore a desire to establish whether there is a correlation between the occurrence of such liver abnormalities, which are indicators of liver toxicity and certain genetic pre-dispositions.

[2] = test system: rat hepatotocyte cultures; assay: Cytotoxicity in rat hepatocyte cultures; format: cell-based; settings: in vitro
[3] = human subjects; cited from earlier work

Cc1ccc(C(=O)c2cc(O)c(O)c([N+](=O)[O-])c2)cc1 [tolcapone]
n (%) of patients (UGT1A6 gene; UGT1A6_232 Ser7Ala, Allele G Absent, Liver Function Abnormality Absent): 112 (42.1%)
n (%) of patients (UGT1A6 gene; UGT1A6_232 Ser7Ala, Allele G Absent, Liver Function Abnormality Present): 40 (30.5%)
n (%) of patients (UGT1A6 gene; UGT1A6_232 Ser7Ala, Allele G Present, Liver Function Abnormality Absent): 154 (57.9%)
n (%) of patients (UGT1A6 gene; UGT1A6_232 Ser7Ala, Allele G Present, Liver Function Abnormality Present): 91 (69.5%)
n (%) of patients (UGT1A6 gene; UGT1A6_232 Ser7Ala, Allele T Absent, Liver Function Abnormality Absent): 31 (11.7%)
n (%) of patients (UGT1A6 gene; UGT1A6_232 Ser7Ala, Allele T Absent, Liver Function Abnormality Present): 28 (21.4%)
n (%) of patients (UGT1A6 gene; UGT1A6_232 Ser7Ala, Allele T Present, Liver Function Abnormality Absent): 235 (88.3%)
n (%) of patients (UGT1A6 gene; UGT1A6_232 Ser7Ala, Allele T Present, Liver Function Abnormality Present): 103 (78.6%)
n (%) of allele copies (UGT1A6 gene; UGT1A6_232 Ser7Ala, Count Allele G, Liver Function Abnormality Absent): 185 (34.8%)
n (%) of allele copies (UGT1A6 gene; UGT1A6_232 Ser7Ala, Count Allele G, Liver Function Abnormality Present): 119 (45.4%)
n (%) of allele copies (UGT1A6 gene; UGT1A6_232 Ser7Ala, Count Allele T, Liver Function Abnormality Absent): 347 (65.2%)
n (%) of allele copies (UGT1A6 gene; UGT1A6_232 Ser7Ala, Count Allele T, Liver Function Abnormality Present): 143 (54.6%)
n (%) of patients (UGT1A6 gene; UGT1A6_232 Ser7Ala, Genotype Heterozygous T/G, Liver Function Abnormality Absent): 123 (46.2%)
n (%) of patients (UGT1A6 gene; UGT1A6_232 Ser7Ala, Genotype Heterozygous T/G, Liver Function Abnormality Present): 63 (48.1%)
n (%) of patients (UGT1A6 gene; UGT1A6_232 Ser7Ala, Genotype Homozygous G/G, Liver Function Abnormality Absent): 31 (11.7%)
n (%) of patients (UGT1A6 gene; UGT1A6_232 Ser7Ala, Genotype Homozygous G/G, Liver Function Abnormality Present): 28 (21.4%)
n (%) of patients (UGT1A6 gene; UGT1A6_232 Ser7Ala, Genotype Homozygous T/T, Liver Function Abnormality Absent): 112 (42.1%)
n (%) of patients (UGT1A6 gene; UGT1A6_232 Ser7Ala, Genotype Homozygous T/T, Liver Function Abnormality Present): 40 (30.5%)
n (%) of patients (UGT1A6 gene; UGT1A6_528 A/G, Allele A Absent, Liver Function Abnormality Absent): 22 (8.3%)
n (%) of patients (UGT1A6 gene; UGT1A6_528 A/G, Allele A Absent, Liver Function Abnormality Present): 26 (20.0%)
n (%) of patients (UGT1A6 gene; UGT1A6_528 A/G, Allele A Present, Liver Function Abnormality Absent): 243 (91.7%)
n (%) of patients (UGT1A6 gene; UGT1A6_528 A/G, Allele A Present, Liver Function Abnormality Present): 104 (80.0%)
n (%) of patients (UGT1A6 gene; UGT1A6_528 A/G, Allele G Absent, Liver Function Abnormality Absent): 129 (48.7%)
n (%) of patients (UGT1A6 gene; UGT1A6_528 A/G, Allele G Absent, Liver Function Abnormality Present): 44 (33.8%)
n (%) of patients (UGT1A6 gene; UGT1A6_528 A/G, Allele G Present, Liver Function Abnormality Absent): 136 (51.3%)
n (%) of patients (UGT1A6 gene; UGT1A6_528 A/G, Allele G Present, Liver Function Abnormality Present): 86 (66.2%)
n (%) of allele copies (UGT1A6 gene; UGT1A6_528 A/G, Count Allele A, Liver Function Abnormality Absent): 372 (70.2%)
n (%) of allele copies (UGT1A6 gene; UGT1A6_528 A/G, Count Allele A, Liver Function Abnormality Present): 148 (56.9%)
n (%) of allele copies (UGT1A6 gene; UGT1A6_528 A/G, Count Allele G, Liver Function Abnormality Absent): 158 (29.8%)
n (%) of allele copies (UGT1A6 gene; UGT1A6_528 A/G, Count Allele G, Liver Function Abnormality Present): 112 (43.1%)
n (%) of patients (UGT1A6 gene; UGT1A6_528 A/G, Genotype Heterozygous A/G, Liver Function Abnormality Absent): 114 (43.0%)
n (%) of patients (UGT1A6 gene; UGT1A6_528 A/G, Genotype Heterozygous A/G, Liver Function Abnormality Present): 60 (46.2%)
n (%) of patients (UGT1A6 gene; UGT1A6_528 A/G, Genotype Homozygous A/A, Liver Function Abnormality Absent): 129 (48.7%)
n (%) of patients (UGT1A6 gene; UGT1A6_528 A/G, Genotype Homozygous A/A, Liver Function Abnormality Present): 44 (33.8%)
n (%) of patients (UGT1A6 gene; UGT1A6_528 A/G, Genotype Homozygous G/G, Liver Function Abnormality Absent): 22 (8.3%)
n (%) of patients (UGT1A6 gene; UGT1A6_528 A/G, Genotype Homozygous G/G, Liver Function Abnormality Present): 26 (20.0%)
n (%) of patients (UGT1A6 gene; UGT1A6_754 Thr181Ala, Allele Ala Absent, Liver Function Abnormality Absent): 144 (52.6%)
n (%) of patients (UGT1A6 gene; UGT1A6_754 Thr181Ala, Allele Ala Absent, Liver Function Abnormality Present): 51 (37.8%)
n (%) of patients (UGT1A6 gene; UGT1A6_754 Thr181Ala, Allele Ala Present, Liver Function Abnormality Absent): 130 (47.4%)
n (%) of patients (UGT1A6 gene; UGT1A6_754 Thr181Ala, Allele Ala Present, Liver Function Abnormality Present): 84 (62.2%)
n (%) of patients (UGT1A6 gene; UGT1A6_754 Thr181Ala, Allele Thr Absent, Liver Function Abnormality Absent): 22 (8.0%)
n (%) of patients (UGT1A6 gene; UGT1A6_754 Thr181Ala, Allele Thr Absent, Liver Function Abnormality Present): 25 (18.5%)
n (%) of patients (UGT1A6 gene; UGT1A6_754 Thr181Ala, Allele Thr Present, Liver Function Abnormality Absent): 252 (92.0%)
n (%) of patients (UGT1A6 gene; UGT1A6_754 Thr181Ala, Allele Thr Present, Liver Function Abnormality Present): 110 (81.5%)
n (%) of allele copies (UGT1A6 gene; UGT1A6_754 Thr181Ala, Count Allele Ala, Liver Function Abnormality Absent): 152 (27.7%)
n (%) of allele copies (UGT1A6 gene; UGT1A6_754 Thr181Ala, Count Allele Ala, Liver Function Abnormality Present): 109 (40.4%)
n (%) of allele copies (UGT1A6 gene; UGT1A6_754 Thr181Ala, Count Allele Thr, Liver Function Abnormality Absent): 396 (72.3%)
n (%) of allele copies (UGT1A6 gene; UGT1A6_754 Thr181Ala, Count Allele Thr, Liver Function Abnormality Present): 161 (59.6%)
n (%) of patients (UGT1A6 gene; UGT1A6_754 Thr181Ala, Genotype Heterozygous Thr/Ala, Liver Function Abnormality Absent): 108 (39.4%)
n (%) of patients (UGT1A6 gene; UGT1A6_754 Thr181Ala, Genotype Heterozygous Thr/Ala, Liver Function Abnormality Present): 59 (43.7%)
n (%) of patients (UGT1A6 gene; UGT1A6_754 Thr181Ala, Genotype Homozygous Ala/Ala, Liver Function Abnormality Absent): 22 (8.8%)
n (%) of patients (UGT1A6 gene; UGT1A6_754 Thr181Ala, Genotype Homozygous Ala/Ala, Liver Function Abnormality Present): 25 (18.5%)
n (%) of patients (UGT1A6 gene; UGT1A6_754 Thr181Ala, Genotype Homozygous Thr/Thr, Liver Function Abnormality Absent): 144 (52.6%)
n (%) of patients (UGT1A6 gene; UGT1A6_754 Thr181Ala, Genotype Homozygous Thr/Thr, Liver Function Abnormality Present): 51 (37.8%)
n (%) of patients (UGT1A6 gene; UGT1A6_765 Arg184Ser, Allele Arg Absent, Liver Function Abnormality Absent): 24 (8.8%)
n (%) of patients (UGT1A6 gene; UGT1A6_765 Arg184Ser, Allele Arg Absent, Liver Function Abnormality Present): 26 (19.3%)
n (%) of patients (UGT1A6 gene; UGT1A6_765 Arg184Ser, Allele Arg Present, Liver Function Abnormality Absent): 250 (91.2%)
n (%) of patients (UGT1A6 gene; UGT1A6_765 Arg184Ser, Allele Arg Present, Liver Function Abnormality Present): 109 (80.7%)
n (%) of patients (UGT1A6 gene; UGT1A6_765 Arg184Ser, Allele Ser Absent, Liver Function Abnormality Absent): 128 (46.7%)
n (%) of patients (UGT1A6 gene; UGT1A6_765 Arg184Ser, Allele Ser Absent, Liver Function Abnormality Present): 45 (33.3%)
n (%) of patients (UGT1A6 gene; UGT1A6_765 Arg184Ser, Allele Ser Present, Liver Function Abnormality Absent): 146 (53.3%)
n (%) of patients (UGT1A6 gene; UGT1A6_765 Arg184Ser, Allele Ser Present, Liver Function Abnormality Present): 90 (66.7%)
n (%) of allele copies (UGT1A6 gene; UGT1A6_765 Arg184Ser, Count Allele Arg, Liver Function Abnormality Absent): 378 (69.0%)
n (%) of allele copies (UGT1A6 gene; UGT1A6_765 Arg184Ser, Count Allele Arg, Liver Function Abnormality Present): 154 (57.0%)
n (%) of allele copies (UGT1A6 gene; UGT1A6_765 Arg184Ser, Count Allele Ser, Liver Function Abnormality Absent): 170 (31.0%)
n (%) of allele copies (UGT1A6 gene; UGT1A6_765 Arg184Ser, Count Allele Ser, Liver Function Abnormality Present): 116 (43.0%)
n (%) of patients (UGT1A6 gene; UGT1A6_765 Arg184Ser, Genotype Heterozygous Arg/Ser, Liver Function Abnormality Absent): 122 (44.5%)
n (%) of patients (UGT1A6 gene; UGT1A6_765 Arg184Ser, Genotype Heterozygous Arg/Ser, Liver Function Abnormality Present): 64 (47.4%)
n (%) of patients (UGT1A6 gene; UGT1A6_765 Arg184Ser, Genotype Homozygous Arg/Arg, Liver Function Abnormality Absent): 128 (46.7%)
n (%) of patients (UGT1A6 gene; UGT1A6_765 Arg184Ser, Genotype Homozygous Arg/Arg, Liver Function Abnormality Present): 45 (33.3%)
n (%) of patients (UGT1A6 gene; UGT1A6_765 Arg184Ser, Genotype Homozygous Ser/Ser, Liver Function Abnormality Absent): 24 (8.8%)
n (%) of patients (UGT1A6 gene; UGT1A6_765 Arg184Ser, Genotype Homozygous Ser/Ser, Liver Function Abnormality Present): 26 (19.3%)
effect on liver transaminase activity [1]: reversible asymptomatic increase in liver transaminase activity
cytotoxicity on inhibition of glucuronidation and oxidation [2]: increase cytotoxicity
main pathway of elimination from the body [3]: glucuronidation
